The record followed here is patent US5506354A, “Imidazolylpiperazinyl steroids” (The Upjohn Company, priority 1992, dated 1996).

Structures can show the parent of a compound that is named as a salt.

In one experiment the test system is mouse head injury. As to the kind of experiment: in vivo mouse head injury procedure of Hall (1 hr neurological recovery, grip test). Particulars: statistically significant (p<0.05).
For a further experiment, the system named is interleukin-1. The experiment is described as follows: Inhibition of interleukin-1 induced T cell proliferation. It counts as cell-based. Conditions: active = greater than 30% at 10^-6 M. The text has this:
The inhibition of interleukin-1 induced T cell proliferation assay, Proc. Nat. […] Since people with arthritis make excess interleukin 1, compounds which inhibit the activity of interleukin 1 are useful in the treatment of arthritis. According to this procedure compounds which inhibit the activity of interleukin 1 greater that 30% at 10^-6 M are considered to be "active".

The subject of experiment [1] is conjugated diene formation. As to the kind of experiment: Conjugated Diene Formation Assay (rat brain synaptosomes). Conditions: 100 μM (or less) of drug; active = inhibition by 50% or more. It counts as biochemical. The text has this:
The formation of conjugated dienes as assayed by Braughler, J. Neurochem., 44, 1282 (1985), Bucher, Fund. Applied Tox., 3, 222 (1983) and Tein, Arch. Biochem. Biophy., 216, 142 (1982) is a standard pharmacological laboratory procedure useful for identifying compounds which inhibit lipid peroxidation. Since lipid peroxidation is involved in the pathophysiology of central nervous system trauma, compounds which inhibit conjugated diene formation are useful in treating the conditions listed below.
44, 1282 (1985). Synaptosomal suspension (10 μl) is added to 1 ml of physiological (normal) saline containing 1% Lubrol PX (Sigma Chemical Co. St. Louis, Mo.), 100 μM hydrogen peroxide and 100 μM (or less) of the drug to be tested prepared in either absolute ethanol or water depending upon solubility. The reaction is started by the rapid addition of 200 μM ferrous ammonium sulfate prepared in argon-purged water. The sample is rapidly mixed and the change in absorbence at 232 nm is followed in a Gifford Response Spectrophotometer equipped with a rapid sampler. Due to the rapidity of the reaction, rapid addition of the iron, rapid mixing and sampling are obligatory to the accuracy of the assay. For best results absorbence readings of one/sec should be started within 5 sec following the addition of iron. The initial linear rate of absorbence change during the first 30 sec of reaction are compared with the rate of a reaction containing all reagents except synaptosomes. The difference in rates is the rate of conjugated diene formation. Rates with drug are compared to rates obtained in the absence of drug and the % inhibition is calculated. A compound that inhibits conjugated diene formation by 50% or more is considered to be "active".

A further experiment relates to MDA formation. The experiment is described as follows: Malonyldialdehyde (MDA) Formation Assay (rat brain synaptosomes). The class given is biochemical. Particulars: 10 min at 37°, pH 7.0; active = 50% or more at 200 μM or less. The procedure:
Since lipid peroxidation is involved in the pathophysiology of center nervous system trauma, compounds which inhibit MDA formation are useful in treating the conditions listed below.
While not necessary to determine MDA formation, the above assays have been modified as follows: rat brain synaptosomes are prepared as described in the Example about the conjugated diene assay, except that the final wash of the synaptosomes and final suspension are in physiological (normal) saline in which the pH has been adjusted to 7.0. The synaptosomes are incubated for 10 min at 37° in physiological (normal) saline pH 7.0 (total volume=100 ul) containing; 10 ul synaptosomal suspension, 10% DMSO plus or minus drug, 150 uM Fe^+++ and 50 uM Fe++. The incubation is started by the rapid addition of iron to the otherwise complete reaction. The iron solutions are prepared fresh as ferric chloride and ferrous ammonium sulfate in argon-purged water. Following the 10 min incubation, the reaction is stopped by the addition of 500 ul ice-cold 12% trichloroacetic acid prepared in 0.5N hydrochloric acid. Water (300 ul) is then added along with 100 ul of freshly prepared thiobarbituric acid (3.3% in 0.5N sodium hydroxide) and 10 ul of 5 mM desferrioxamine. The sample is then heated in a boiling water bath for 20 minutes. The samples are cooled and centrifuged for 15 minutes at 1500×g and the absorbence of the supernatant fraction is read at 532 nm. The % inhibition of MDA formation is calculated by dividing the absorbance of sample containing drug by the absorbence of samples incubated without drug. Reaction blanks are samples incubated in the absence of iron. A compound that inhibits MDA formation by 50% or more at a concentration of 200 μM or less is considered "active".

A further experiment has as its system angiogenesis. The experiment is described as follows: Chick embryo assay of Folkman (inhibition of angiogenesis / tumor growth). Particulars: 50 μg/10 μl in the presence of heparin. The class given is in vivo. How it is done: According to this procedure compounds which are considered to be "active" (i.e. antiangiogenic) give an avascular zone of 4 mm or greater in some embryos when tested at 50 μg/10 μl in the presence of 50 μg/10μ of heparin.

In a further experiment the test system is mucous secretion. As to the kind of experiment: Inhibition of mucous secretion assay of Johnson. Conditions: for inhibition of mucous secretion (activity in words): induced mucous secretions. The text has this:
According to this procedure compounds which inhibit or block enhancement of induced mucous secretions when tested are considered to be "active".

Experiment [2] relates to AcylCoA:Cholesterol Acyltransferase (ACAT). The experiment is described as follows: AcylCoA:Cholesterol Acyltransferase (ACAT) Inhibition Assay. It counts as cell-based. Also on record: key to inhibition of ACAT (activity in words): compounds which inhibit ACAT activity equal to, or greater than, that of chloropromazine are considered "active". Conditions: for inhibition of ACAT (activity in words): preferred Fu5AH cells, compared with chloropromazine. The text has this:
ACAT esterifies arterial cholesterol which is a key reaction in the development of atherosclerosis. The procedure of Bell, Can. […] In the ACAT assay it is preferred to use Fu5AH cells, see Lipids 9, 526 (1974). According to this procedure, compounds which inhibit ACAT activity equal to, or greater than, that of chloropromazine are considered "active".

The subject of experiment [3] is serum and arterial cholesterol in quail fed an atherogenic diet. As to the kind of experiment: Antiatherosclerosis Screen in Susceptible to Experimental Atherosclerosis (SEA) Japanese Quail. It counts as in vivo. The procedure: While not necessary, some minor modifications for extraction of cholesterol from the artery have been made. Time are as follows: frozen arteries are homogenized in hexane/isopropanol (3/2) and the volume adjusted with Triton 100 solution (1.5% in hexane/isopropanol) to 7 ml. After standing 12 hr at 20°-25°, the supernatant, obtained by low speed centrifugation is evaporated until dry and thru the residue is suspended in 0.5 ml of 5% Triton 100 in isopropanol. This suspension is incubated for 10 min at 45° to dissolve the material. This solution as well as the diluted serum samples are analyzed for cholesterol by standard clinical chemistry analyzer methods. According to the above procedure compounds which decrease serum or arterial cholesterol >30% are considered to be "active".

The test system of the next experiment is arachidonic acid. As to the kind of experiment: Arachidonic Acid Antagonism Assay (AAAA), LD50 of sodium arachidonate. The class given is in vivo, Charles River male CF-1 mice. Conditions: 100 mg/kg; test compound IV. In outline: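 Male CF-1 mice (18–22 g) received test compound IV in 1.0% Tween-80/0.1% HCl. LD50 was derived by Spearman-Karber (log dose interval 0.05, N=6), and activity was defined as LD50 elevation outside the control's 95% confidence interval.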

As to `CCN(CC)c1cc(N2CCN(CC(=O)[C@H]3CC[C@H]4[C@@H]5CCC6=CC(=O)CC[C@]6(C)[C@H]5[C@H](O)C[C@]34C)CC2)nc(N(CC)CC)n1.Cl.Cl` [Example 69, 21-[4-[2,6-bis(diethylamino)-4-pyrimidinyl]-1-piperazinyl]-11α-hydroxypregn-4-ene-3,20-dione dihydrochloride], the “% Increase in 1 hr Post-Injury Grip Test Scores After 3 mg/kg” value (shortened to “% Increase”) in the experiment on mouse head injury was 199.7%.

`CS(=O)(=O)O.CS(=O)(=O)O.C[C@@H]1C[C@H]2[C@@H]3CCC4=CC(=O)C=C[C@]4(C)C3=CC[C@]2(C)[C@H]1C(=O)CN1CCN(c2cc(N3CCCC3)nc(N3CCCC3)n2)CC1` [Example 83, 16α-Methyl-21-[4-(2,6-bis(1-pyrrolidinyl)-4-pyrimidinyl]-1-piperazinyl]pregna-1,4,9(11)-triene-3,20-dione dimethane-sulfonate]: in the experiment on interleukin-1, the “inhibition of interleukin 1 (activity in words)” value is reported as “demonstrate inhibition of interleukin 1”. In experiment [1], the “inhibition of conjugated diene formation (activity in words)” value is given as “demonstrate such activity”. Besides, in the experiment with MDA formation, the “inhibition of MDA formation (activity in words)” value was “demonstrate such activity”. Moreover, the “inhibition of angiogenesis (activity in words)” value in the experiment on angiogenesis is recorded as “demonstrate inhibition of angiogenesis”. Moreover, in the experiment with mucous secretion, the “inhibition of mucous secretion (activity in words)” value is on record as “demonstrate such activity”. Besides, the “preferred mucous inhibitors by the test results (in words)” value in the experiment with mucous secretion (test results disclose) is reported as “preferred mucous inhibitors”.

For the compound `CCNc1cccnc1N1CCN(CC(=O)[C@H]2[C@H](C)C[C@H]3[C@@H]4CCC5=CC(=O)C=C[C@]5(C)C4=CC[C@@]32C)CC1` [Example 127, 21-[4-[3-(Ethylamino)-2-pyridinyl]piperazinyl]-16α-methylpregna-1,4,9(11)-triene-3,20-dione hydrochloride], the “% Increase” value in the experiment on mouse head injury stood at 200.8%.

Take `CS(=O)(=O)O.C[C@@H]1C[C@H]2[C@@H]3CCC4=CC(=O)C=C[C@]4(C)C3=CC[C@]2(C)[C@H]1C(=O)CN1CCN(c2cc(N3CCCC3)nc(N3CCCC3)n2)CC1.O` [Example 109, 16α-Methyl-21-[4-[2,6-bis(1-pyrrolidinyl)-4-pyrimidinyl]-1-piperazinyl]-pregna-1,4,9(11)-triene-3,20-dione-monomethanesulfonate monohydrate]: the “% Increase” value with mouse head injury came to 184.4%.

Consider `CCN(CC)c1cc(N2CCN(CC(=O)[C@@]3(O)CC[C@H]4[C@@H]5CCC6=CC(=O)CC[C@]6(C)[C@H]5[C@H](O)C[C@@]43C)CC2)nc(N(CC)CC)n1.Cl.Cl` [Example 70, 21-[4-[2,6-bis(diethylamino)4-pyrimidinyl]-1-piperazinyl]-11α,17α-dihydroxypregn-4-ene-3,20-dione dihydrochloride], for which the “% Increase” value with mouse head injury is recorded as 148.3%.

As to `CCN(CC)c1cc(N2CCN(CC(=O)[C@@]3(O)[C@H](C)C[C@H]4[C@@H]5CCC6=CC(=O)C=C[C@]6(C)C5=CC[C@@]43C)CC2)nc(N(CC)CC)n1.Cl.O` [Example 18, 21-[4-[2,6-Bis(diethylamino)-4-pyrimidinyl]-1-piperazinyl]-17α-hydroxy-16α-methylpregna-1,4,9(11)-triene-3,20-dione hydrochloride hydrate], in the experiment with mucous secretion, the “inhibition of mucous secretion (activity in words)” value is recorded as “demonstrate such activity”. Besides, the “inhibition of ACAT (activity in words)” value in [2] is recorded as “active”.

Regarding `C[C@]12CCC(=O)C=C1CC[C@@H]1C2=CC[C@@]2(C)[C@H]1CC[C@]2(O)C(=O)CN1CCN(c2ccccn2)CC1.Cl` [Example 3, 17α-Hydroxy-21-[4-(2-pyridinyl)-1-piperazinyl]pregna-4,9(11)-diene-3,20-dione hydrogen chloride salt], the “reduction of arterial cholesterol (in words)” value in [3] (artery) was “demonstrates reduction of serum and arterial cholesterol”. Further, the “reduction of serum cholesterol (in words)” value in [3] (serum) is “demonstrates reduction of serum and arterial cholesterol”. The “inhibition of ACAT (activity in words)” value in experiment [2] was “active”.

On to `CCN(CC)c1nc(N2CCCCC2)cc(N2CCN(CC(=O)[C@@]3(O)CC[C@H]4[C@@H]5CCC6=CC(=O)CC[C@]6(C)C5=CC[C@@]43C)CC2)n1.Cl.O` [Example 17, 17α-Hydroxy-21-[4-[2-(diethylamino)-6-(1-piperidinyl)-4-pyrimidinyl]-1-piperazinyl]pregna-4,9(11)-diene-3,20-dione hydrochloride hydrate], for which the “% of Control LD50 100 mg/kg” value in the experiment with arachidonic acid is listed as 150%. In the experiment on MDA formation, the “inhibition of MDA formation (activity in words)” value is “demonstrate such activity”. Besides, the “% Inhibition of ACAT” value in experiment [2] (5 μg/ml) was 32.2%. Besides, the “inhibition of ACAT (activity in words)” value in experiment [2] is reported as “active”.
